Measured values reported in patent publication EP4699605A1, “USE OF NOVEL COMPOUND FOR TREATING INTRACTABLE DISEASES” (YJ Cerapeutics Inc., priority 2023, dated 2024).

How the values were obtained:
inflammatory factors = experiment: Inflammatory factor expression in L4-5 spinal cord of SNI model (RT-PCR, Western blot); assay type: in vivo, Sprague-Dawley rats; conditions: ipsilateral spinal cord tissue, 4 weeks after nerve injury, RT-PCR and Western blot
Protocol: (§1) To be used as a peripheral nerve injury animal model, a sciatic nerve injury (SNI) model was prepared (FIG. 1C). Specifically, 200 to 220 g of male adult Sprague-Dawley rats were anesthetized by intraperitoneal injection of chloral hydrate (500 mg/kg), and then three terminal branches (tibial, common peroneal, and sural nerves) of the right sciatic nerve were approached, and the tibia nerve and the peroneal nerve were tightly ligated with 4-0 silk, and neurectomy was performed at a distal 3 mm position of the ligation site. At this time, a Sham group was a group that exposed only the sciatic nerve without damage.
It was known that when neuropathic pain occurred, the activation of microglia and astrocytes expressed inflammatory factors including cytokines and chemokines to cause excessive excitation of surrounding neurons. Therefore, in order to confirm changes in inflammatory factor expression by YJ102 administration in the SNI animal model 4 weeks after nerve injury, RNA and protein were extracted from L4-5 spinal cord tissue and RT-PCR and Western blot analysis were performed. Specifically, for RT-PCR analysis, RNA was isolated from spinal cord tissue sections using a TRIZOL Reagent (Invitrogen) according to a manual, and 20 µl of the total mixture was prepared by using 1 µg of total RNA, and cDNA was synthesized using MMLV reverse transcriptase (Invitrogen). […]

[1] = tested on: IMQ psoriasis animal model; experiment: Spleen hypertrophy in IMQ psoriasis animal model; assay type: in vivo, C57BL/6 mouse; conditions: Day 6, vs Vehicle group
Protocol: Psoriasis caused by excessive production of skin cells was a chronic skin disease associated with various factors, including autoimmune diseases, and its symptoms included red and thickened skin and abnormally occurring scaling. […] Specifically, the back region of a C57BL/6 mouse (male, 18 to 20 g, 8 weeks) (Daehan Biolink, Eumseong, Korea) was shaved to remove hair, and then applied with IMQ cream (83 mg/day) (5%) for consecutive 5 days from Day 0 to Day 4 to induce psoriasis-like skin inflammation, and a normal control mouse (Sham) was applied with Vaseline cream (FIG. 16A).
The spleen hypertrophy occurred in mice induced with psoriasis, the longitudinal diameter of the spleen in psoriasis patients was increased compared to that of non-psoriasis patients, and a correlation between the disease duration and the spleen diameter was reported. Therefore, on Day 6, the spleen of the mouse in each group was extracted and weighed to determine the degree of spleen hypertrophy.

[2] = tested on: nerve injury animal models (SCI, LSS, SNI); experiment: Mechanical allodynia (von-Frey filaments, 50% paw withdrawal threshold) in nerve injury animal models; assay type: in vivo, Sprague-Dawley rats
Protocol: To be used as a central nerve injury animal model, a traumatic spinal cord injury (SCI) model was prepared (FIG. 1A). Specifically, 230 to 250 g of male adult Sprague-Dawley rats were anesthetized by intraperitoneal injection of chloral hydrate (500 mg/kg), and then the back and neck regions were shaved, and the spinal cord under the back and neck regions was exposed without damaging the dura mater, and a laminectomy was performed at T9 to T10 levels. To stabilize the spine, the spinous processes of T8 and T11 were fixed, and the spine was damaged by free-falling a 10 g weight from a height of 25 mm using an NYU impactor onto the back surface of the exposed spinal cord and then the rats were left in a temperature and humidity-controlled chamber overnight while covering the muscles and skin. After surgery, the rats were subcutaneously injected with a supplement solution (5 ml, lactated ringer) and injected with antibiotics (gentamicin, 5 mg/kg, intramuscular injection) once daily for 5 days. The body weight, remaining food, and the weight of water were confirmed and recorded for all animals, and the bladder was emptied twice daily by passive bladder massage until reflex micturition was established. At this time, a Sham group was a group that was subjected to only laminectomy without damage.
To be used as a peripheral nerve injury animal model, a lumbar spinal stenosis (LSS) model was prepared (FIG. 1B). Specifically, 260 to 280 g of adult male Sprague-Dawley rats were anesthetized with intraperitoneal injection of chloral hydrate (500 mg/kg), the back region was shaved, and then the spinal plate was exposed at L4 to S2 levels. After removing the ligamentous section between L4 and L5, a trapezoidal silicone block (1.00 mm long × 1.3 to 1.2 mm wide × 1.0 mm high) was inserted into the epidural space below the L5 and L6 spinal plates without damaging the dural sac. At this time, a Sham group was a group that was subjected to only posterior […] on the animal without inserting a silicone block.
as §1
In order to confirm a neuropathic pain inhibitory effect of YJ102 (Chemical Formula 1), a compound of the present disclosure, in the three nerve injury animal models prepared in Example 1 above, rats having pain on week 3 (SNI model) or week 4 (SCI model and LSS model) after surgery were selected and administered orally (p.o.) at 10 mg/kg or 20 mg/kg of YJ102 dissolved in a solution of DMSO, methyl pyrrolidinone, and water (1 : 1.5 : 1), or intraperitoneally injected (i.p. injection) at 1, 2, or 5 mg/kg of YJ102. In a positive control group, gabapentin or pregabalin dissolved in saline was intraperitoneally injected at a concentration of 5 mg/kg, and in a Vehicle group, the same amount of a solution of DMSO, methyl pyrrolidinone, and water was administered. Thereafter, in order to measure mechanical allodynia, the rats were located at the bottom of a transparent plastic box (10 cm × 10 cm) on top of a wire mesh (3 mm × 3 mm) and subjected to an adaptation period for approximately 20 minutes. Von-Frey filaments were applied to the soles of both paws and used with stiff nylon von-Frey monofilament series ([…], Stoelting, WoodDale, IL, USA; equivalent in grams to 0.4, 0.6, 1.0, 2.0, 4.0, 6.0, 8.0 and 15.0) with logarithmic increases in tactile (mechanical) sensitivity. […]

TRPM7 = experiment: Signaling pathway analysis in SNI model (Western blot): TRPM7 expression; assay type: in vivo, Sprague-Dawley rats; conditions: 4 weeks after nerve injury
Protocol: To determine through which signaling pathway YJ102 inhibited a neuroinflammatory response, there was analyzed increased expression and activation of histone demethylase JMJD3 and expression changes of factors associated with JAK/STAT3 pathway, mTOR pathway, and TRPM7-mediated pathway, which were known as important regulatory mechanisms and epigenetic regulators mediating the neuroinflammatory response, in the tissues of the SNI animal model 4 weeks after nerve injury.

[3] = all three models (SCI, LSS, SNI), orally 10 mg/kg or 20 mg/kg

CCc1ccc(N(C(=O)COC)c2nc3cc(Cl)ccc3o2)cc1 [YJ102]
expression of inflammatory factors (inflammatory factors): significantly reduced
size of the spleen [1]: significantly reduced
weight of the spleen [1]: significantly reduced
duration of the analgesic effect [2, 3]: ≥ 4 h
time from which the mechanical allodynia threshold was increased after administration [2, 3]: 30 min
analgesic effect compared with gabapentin or pregabalin ([2]; intraperitoneal, same concentration as gabapentin or pregabalin, SCI, LSS, SNI models): more than twice as high
duration of the analgesic effect compared with existing drugs ([2]; intraperitoneal, versus gabapentin and pregabalin, SCI, LSS, SNI models): more than three times longer
expression of TRPM7 (TRPM7): inhibited
